Consider 1 compound from the NIST ThermoML archive (doi:10.1016/j.jct.2013.12.031).

For the data set the following is noted: Crystal; visual observation.

Numbers after ± are expanded uncertainties.

On to `Cc1ccc(S(=O)(=O)[O-])cc1.c1ccc2sc[nH+]c2c1` [benzothiazolium p-toluenesulfonate], for which the Normal melting temperature is 120.00 ± 0.5 °C.
